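Assay format: 96-well plates, 48-hour exposure. GI50: concentration for 50% inhibition of growth. TGI denotes the concentration required for complete inhibition of growth.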
Tests used:
Assay in all cases: inhibition of tumour cell growth, NCI panel, 48 h
786-0 renal = tested on: 786-0 renal
A498 renal = tested on: A498 renal
A549 NSCLC = tested on: A549 NSCLC
ACHN renal = tested on: ACHN renal
BT-549 breast = tested on: BT-549 breast
CAKI-1 renal = tested on: CAKI-1 renal
CCRF-CEM leukemia = tested on: CCRF-CEM leukemia
COLO 205 colon = tested on: COLO 205 colon
DU-145 prostate = tested on: DU-145 prostate
EKVX NSCLC = tested on: EKVX NSCLC
HCC-2998 colon = tested on: HCC-2998 colon
HCT-116 colon = tested on: HCT-116 colon
HCT-15 colon = tested on: HCT-15 colon
HL-60(TB) leukemia = tested on: HL-60(TB) leukemia
HOP-62 NSCLC = tested on: HOP-62 NSCLC
HOP-92 NSCLC = tested on: HOP-92 NSCLC
HS 578T breast = tested on: HS 578T breast
HT29 colon = tested on: HT29 colon
IGROV1 ovarian = tested on: IGROV1 ovarian
K-562 leukemia = tested on: K-562 leukemia
KM12 colon = tested on: KM12 colon
LOX IMVI melanoma = tested on: LOX IMVI melanoma
M14 melanoma = tested on: M14 melanoma
MALME-3M melanoma = tested on: MALME-3M melanoma
MCF7 breast = tested on: MCF7 breast
MDA-MB-231 breast = tested on: MDA-MB-231 breast
MDA-MB-435 = tested on: MDA-MB-435
MOLT-4 leukemia = tested on: MOLT-4 leukemia
NCI-H226 lung = tested on: NCI-H226 lung
NCI-H23 lung = tested on: NCI-H23 lung
NCI-H460 lung = tested on: NCI-H460 lung
NCI-H522 lung = tested on: NCI-H522 lung
NCI/ADR-RES ovarian = tested on: NCI/ADR-RES ovarian
OVCAR-3 ovarian = tested on: OVCAR-3 ovarian
OVCAR-4 ovarian = tested on: OVCAR-4 ovarian
OVCAR-5 ovarian = tested on: OVCAR-5 ovarian
OVCAR-8 ovarian = tested on: OVCAR-8 ovarian
PC-3 prostate = tested on: PC-3 prostate
SF-268 CNS = tested on: SF-268 CNS
SF-295 CNS = tested on: SF-295 CNS
SF-539 CNS = tested on: SF-539 CNS
SK-MEL-2 melanoma = tested on: SK-MEL-2 melanoma
SK-MEL-28 melanoma = tested on: SK-MEL-28 melanoma
SK-MEL-5 melanoma = tested on: SK-MEL-5 melanoma
SK-OV-3 ovarian = tested on: SK-OV-3 ovarian
SN12C renal = tested on: SN12C renal
SNB-19 CNS = tested on: SNB-19 CNS
SNB-75 CNS = tested on: SNB-75 CNS
SR leukemia = tested on: SR leukemia
SW-620 colon = tested on: SW-620 colon
T-47D breast = tested on: T-47D breast
TK-10 renal = tested on: TK-10 renal
U251 CNS = tested on: U251 CNS
UACC-257 melanoma = tested on: UACC-257 melanoma
UACC-62 melanoma = tested on: UACC-62 melanoma
UO-31 renal = tested on: UO-31 renal

## COc1ccccc1N1CCN(CC(O)COc2c(Br)c(Br)c(Br)c3c2OC(C)(C)C3)CC1 (configuration not stated)
786-0 renal
  GI50: 12.8 µM
  TGI: 29.6 µM
A498 renal
  GI50: 20.4 µM
  TGI: 47.9 µM
A549 NSCLC
  GI50: 16.6 µM
  TGI: 96.5 µM
ACHN renal
  GI50: 14.2 µM
  TGI: > 100 µM
BT-549 breast
  GI50: 12.5 µM
  TGI: 34.1 µM
CAKI-1 renal
  GI50: 4.56 µM
  TGI: 12.3 µM
CCRF-CEM leukemia
  GI50: 92.2 µM
  TGI: > 100 µM
COLO 205 colon
  GI50: 12.4 µM
  TGI: 30.4 µM
DU-145 prostate
  GI50: 16.5 µM
  TGI: 37.3 µM
EKVX NSCLC
  GI50: 8.85 µM
  TGI: > 100 µM
HCC-2998 colon
  GI50: 4.57 µM
  TGI: 16.5 µM
HCT-116 colon
  GI50: 4.45 µM
  TGI: 20.1 µM
HCT-15 colon
  GI50: 4.72 µM
  TGI: 24.8 µM
HL-60(TB) leukemia
  GI50: 5.05 µM
  TGI: > 100 µM
HOP-62 NSCLC
  GI50: 12.6 µM
  TGI: 30.8 µM
HOP-92 NSCLC
  GI50: 6.15 µM
  TGI: 24.1 µM
HS 578T breast
  GI50: 15 µM
  TGI: 42 µM
HT29 colon
  GI50: 4.1 µM
  TGI: 14 µM
IGROV1 ovarian
  GI50: 12.8 µM
  TGI: 38.9 µM
K-562 leukemia
  GI50: 4.7 µM
  TGI: > 100 µM
KM12 colon
  GI50: 13.7 µM
  TGI: 56.1 µM
LOX IMVI melanoma
  GI50: 6.38 µM
  TGI: 18.9 µM
M14 melanoma
  GI50: 13.2 µM
  TGI: 37.5 µM
MALME-3M melanoma
  GI50: 16.1 µM
  TGI: 37.5 µM
MCF7 breast
  GI50: 25.5 µM
  TGI: > 100 µM
MDA-MB-231 breast
  GI50: 12.9 µM
  TGI: 32.1 µM
MDA-MB-435
  GI50: 16.2 µM
  TGI: 55.1 µM
MOLT-4 leukemia
  GI50: 4.25 µM
  TGI: > 100 µM
NCI-H226 lung
  GI50: 13.2 µM
  TGI: 64.5 µM
NCI-H23 lung
  GI50: 9.53 µM
  TGI: 38.4 µM
NCI-H460 lung
  GI50: 8.78 µM
  TGI: 54.4 µM
NCI-H522 lung
  GI50: 12.3 µM
  TGI: 27.9 µM
NCI/ADR-RES ovarian
  GI50: 11.2 µM
  TGI: > 100 µM
OVCAR-3 ovarian
  GI50: 14.4 µM
  TGI: 34.6 µM
OVCAR-4 ovarian
  GI50: 8.93 µM
  TGI: > 100 µM
OVCAR-5 ovarian
  GI50: 19.4 µM
  TGI: > 100 µM
OVCAR-8 ovarian
  GI50: 31.5 µM
  TGI: 94.4 µM
PC-3 prostate
  GI50: 6.53 µM
  TGI: 43.4 µM
SF-268 CNS
  GI50: 33.3 µM
  TGI: > 100 µM
SF-295 CNS
  GI50: 4.68 µM
  TGI: 17.3 µM
SF-539 CNS
  GI50: 13.9 µM
  TGI: 32.1 µM
SK-MEL-2 melanoma
  GI50: 5.32 µM
  TGI: 20.9 µM
SK-MEL-28 melanoma
  GI50: 17.3 µM
  TGI: 36.8 µM
SK-MEL-5 melanoma
  GI50: 4.91 µM
  TGI: 19.1 µM
SK-OV-3 ovarian
  GI50: 49.4 µM
  TGI: > 100 µM
SN12C renal
  GI50: 14.6 µM
  TGI: 32.9 µM
SNB-19 CNS
  GI50: 17.9 µM
  TGI: 47.3 µM
SNB-75 CNS
  GI50: 18.1 µM
  TGI: 94.1 µM
SR leukemia
  GI50: 7.83 µM
  TGI: > 100 µM
SW-620 colon
  GI50: 9.6 µM
  TGI: 25.7 µM
T-47D breast
  GI50: 15.8 µM
  TGI: > 100 µM
TK-10 renal
  GI50: 15.4 µM
  TGI: 46.7 µM
U251 CNS
  GI50: 10.6 µM
  TGI: 24.2 µM
UACC-257 melanoma
  GI50: 23.4 µM
  TGI: > 100 µM
UACC-62 melanoma
  GI50: 12 µM
  TGI: 30.6 µM
UO-31 renal
  GI50: 9.66 µM
  TGI: 27.2 µM
